From patent US20240252582A1, “METHODS FOR TREATING AMBLYOPIA” (City University of Hong Kong, priority 2023, published 2024)
Non-standard residues stand in square brackets, D forms with d. Phe(3-Br) = N[C@@H](Cc1cccc(Br)c1)C(=O)O; Nle = CCCC[C@H](N)C(=O)O

How the values were obtained:
[1] = system: juvenile C57BL/6 mice model of amblyopia (LTMD); test: In-vivo electrophysiology (spike recording in V1), contralateral bias index after long-term monocular deprivation
Description: The mice are anesthetized through the application of a K-X combination during the surgical preparation. The body temperatures of the mice are maintained at 37° C. by use of a homeostatically controlled heating pad during the surgery. Following the induction of anesthesia, each mouse is mounted on a stereotaxic instrument (RWD Life Science, Shenzhen, China) and an incision is made along the midline of the head. The stereotaxic instrument is adjusted to place the bregma and lambda points of the skull on a flat skull surface (anteroposterior: −3.2 mm to −4.0 mm; mediolateral: 3.0-3.8 mm, relative to bregma). A piece of the scalp over the V1 is removed to expose the cortex, and a bone screw is fixed in the frontal bone as the reference electrode. The exposed cortical surface is then covered with extracellular saline (in mM: 125 NaCl, 5 KCl, 10 glucose, 10 4-(2-hydroxyethyl)-1-piperazineethanesulphonicacid [HEPES], and 2 CaCl2; pH adjusted to 7.4) to prevent drying of the surface. The electrode is lowered into the brain to an appropriate depth (V1≤1 mm) and is allowed to settle for 30 min before recording is begun. In each mouse, 3-4 separate penetrations are spaced evenly at least 200 μm apart across the binocular region of V1. The eyes are kept moist with ophthalmic lubricant ointment until recording to prevent drying while enabling clear optical transmission. At the end of the recording, the mice are euthanized by injection of an overdose of Dorminal (300 mg/kg).
Visual stimuli of sinusoidal drifting gratings with increasing orientation angles(0-330°) and 0.4 cpd are presented in random order to alternate eyes. The spike recordings are performed with the use of a polyimide-coated platinum/iridium (70:30) ribbon microelectrode array (Clunbury Scientific LLC, USA). The tip resistances are 30-50 kΩ. The A-M Systems 3600 (A-M Systems, USA) and CED Micro 1401-3 (Cambridge Electronic Design, UK) instruments are used as the amplifier and data acquisition system, respectively. The signals are sampled at 25 kHz and bandpass-filtered at 300 Hz-3 KHz for spike, amplified, and fed to spike2 software (Cambridge Electronic Design, UK). Offline analysis is performed using MATLAB (R2020b, Math Works, USA). To begin, the raw data are transformed into a MATLAB-compatible format. Spike sorting is used to distinguish various units collected at the same time in the spike data. Wave clus, a MATLAB tool, is used to categorize the units based on the characteristics of their waveforms.
The neuronal response in the Visual cortex (V1) is recorded extracellularly, while the same visual stimulus with varied orientation is presented to either of the eyes alternatively, and the relative strength of the response is determined.
To quantify the deprivation effect, the inventors calculate the contralateral bias index (CBI) from spikes (response from the single neuron) using the following formula:
where NT is the total number of units and NX is the number of units with OD scores equal to x (x=1, 2, 3, 5, 6, 7). For the sum of the number of cells in each category is used to calculate the CBI for each animal.
FIGS. 1A and 1B, show the timeline of the experimental setup, i.e. LTMD, surgery, dosing, and in-vivo electrophysiology used in the second and third experiments. In the second experiments, in juvenile after LTMD, saline or CCK8s (Cholecystokinin octapeptide (Tocris Bioscience, UK): 1 ul each day (10 ng/ul), Cholecystokinin octapeptide (Tocris Bioscience, UK)) is infused (treatment) for 15 days (from P42 to P57) in V1. […] The ipsilateral eye is dominated. Contrarily, in the group treated with CCK8s (infusion in V1), the ocular dominance shifts from the ipsilateral eye towards the contralateral eye (CBI=0.65, 12 animals) (FIG. 1G).
In juvenile after LTMD, 3r1 (a type of CCKBR agonist, Guangzhou Institute of Biomedicine and Health, affiliated with the Chinese Academy of Sciences, Guangzhou, China) (4.18 uM) is administered intraperitoneally (i.p). […]

[2] = system: juvenile C57BL/6 mice model of amblyopia (LTMD); test: Visual water behavioral test of visual acuity after long-term monocular deprivation; type: in vivo; conditions: for Visual acuity: Long-term MD (P21-P42) mice, WT adult 0.44; for Performance (percentage accuracy) during training after treatment / Cutoff (70% accuracy) achieved during testing / Visual acuity, Mean±SEM (FIG. 2G, post hoc analysis): juvenile LTMD mice; for Performance (percentage accuracy) during training after treatment: cutoff 70% accuracy (FIG. 2F); for Visual acuity, Mean±SEM (FIG. 2G, post hoc analysis): WT 0.44±0.02 (P>0.05)
Source text: Amblyopia patients usually have poor visual acuity. It is believed that the method according to the invention can reverse the lost visual acuity in amblyopia patients. FIGS. 2A-2G illustrate the assessment of visual acuity using visual water maze. Dotted line represents the 70% accuracy as cutoff. As shown in FIGS. 2C-2E, WT adult (P60) mice with no MD show cutoff at cpd 0.45 achieved during testing by all the animals (12 animals). After LTMD in juvenile followed by saline (infusion)/CCK8s treatment, the mice show cutoff at cpd 0.30 and 0.52 respectively achieved during testing by all the animals (11 animals/12 animals respectively). After LTMD in juvenile followed by saline (i.p)/CCKBR agonist (3r1) treatment, the mice show cutoff at cpd 0.33 and 0.46 respectively achieved during testing by all the animals (11 animals/15 animals respectively). […] The performance of the animals during training in WT adult (P60) with no MD, before and after remained unchanged. After LTMD in juvenile, the performance of animals during training before and after saline (infusion) treatment remained unchanged and the performance of animals during training before and after CCK8s treatment show the difference. […] After LTMD in juvenile, the performance of animals during training before and after saline (i.p) treatment remained unchanged and the performance of animals during training before and after CCK-agonist (3r1) treatment show the difference. […] A significant difference is observed between saline (infusion) and CCK8s treated animals (P<0.001) and in between saline (i.p) and CCKBR agonist (3r1) (P<0.001). No significant difference in visual acuity observed in adult (P60), no MD and juvenile LTMD following CCK8s and CCKBR agonist (3r1) treated animals (P>0.05). Error bars in FIG. 2G indicate the standard error of the mean (SEM).
Visual water behavioral test is performed to show visual acuity improvement following long-term monocular deprivation after administration of CCK8s and CCKBR agonist (3r1). Each animal learns quickly to associate swimming to the escape platform placed below the screen displaying grating stimuli during pre-training phase and post-training phase. Animals of all groups learn serendipitously during training to swim to the end of the divider, and then look at each screen several times before making their choice.
FIGS. 2A and 2B show the behavioural experimental design of this example: (CCK8s) infusion in V1 and CCKBR agonist (3r1)(i.p). The testing criterion in the training phase (from P42 to P47) is reached for all mice within four sessions (32 trials). Average performance above 70% accuracy is maintained for all mice of different groups (FIG. 2F). The visual acuity of the groups is illustrated in FIGS. 2C-2E.

Substance	Contralateral bias index (CBI) ([1]; juvenile LTMD mice, i.p., 4 doses on alternate days for 7 days, 0.0122890 mg/kg per dose, saline CBI=0.31)	Contralateral bias index (CBI) ([1]; juvenile LTMD mice, i.p., 8 doses on alternate days for 14 days, 0.0122890 mg/kg per dose, saline CBI=0.31)	Histogram of V1 cells, eye response bias ([1]; juvenile LTMD mice, treatment for fourteen days (FIG. 1J))	Histogram of V1 cells, eye response bias ([1]; juvenile LTMD mice, treatment for seven days (FIG. 1I))	Visual acuity ([2]; i.p., saline (i.p) 0.33) [c/d]	Performance (percentage accuracy) during training after treatment [2]	Cutoff (70% accuracy) achieved during testing ([2]; i.p., saline (i.p) 0.33, WT 0.45 (FIG. 2E)) [cpd]	Visual acuity, Mean±SEM (FIG. 2G, post hoc analysis) ([2]; i.p., saline (i.p) 0.33±0.01 (P<0.001)) [c/d]	Contralateral bias index (CBI) ([1]; juvenile LTMD (P21-P42) mice, infusion in V1, 1 ul each day (10 ng/ul), 15 days (P42-P57), saline CBI=0.33)	Histogram of V1 cells, eye response bias ([1]; juvenile LTMD mice, infusion 15 days (FIG. 1G))	Visual acuity ([2]; infusion, saline (infusion) 0.3) [c/d]	Visual acuity, Mean±SEM (FIG. 2G, post hoc analysis) ([2]; infusion, saline 0.309±0.01 (P<0.001)) [c/d]	Cutoff (70% accuracy) achieved during testing ([2]; infusion, saline (infusion) 0.30, WT 0.45 (FIG. 2D)) [cpd]
Ac-W[Nle]D[Phe(3-Br)]-NH2 [3r1]	0.66	0.68	strong contralateral eye bias	strong contralateral eye bias	0.46	reaches beyond the cutoff	0.46	0.46±0.02					
Cholecystokinin octapeptide [CCK8s, reference compound]						reaches beyond the cutoff			0.65	strong contralateral eye bias	0.5	0.5±0.01	0.52
